One block for each compound: values may come before it. Calls of active or inactive are those of the source. Unless noted, no cut-off for these calls is given here.
How the values were obtained:
[1] = Late stage assay provider results from the probe development effort to identify inhibitors of the Plasmodium falciparum M18 Aspartyl Aminopeptidase (M18AAP): radiolabel-based cell-based dose response assay to identify compounds that inhibit P. falciparum growth in RBCs, Set 2..; format: functional
[2] = CTGF mRNA reduction in DLD1 cells – cell-based, DLD1 colon cancer, RT-qPCR, cherry-pick, dose response (AID 1053122); format: functional; details: Cancer cell lines
[3] = viability loss in HEK293T cells – cell-based, CellTiter-Glo luminescence, dry powder, set 6, cytotoxicity control, dose response (AID 651949); format: functional; details: HEK293
[4] = reduced cellular PGC1a acetyl-lysine signal – cell-based, cherry-picked samples, dose response (AID 720514); format: functional;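 note: potency may reflect raised or lowered acetylation signal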
[5] = HEK293 cell viability loss – cherry-picked samples, cytotoxicity control, dose response (AID 1053185); format: functional, cell-based
[6] = A549 cell viability loss – cherry-picked samples, cytotoxicity control, dose response (AID 1053184); format: functional, cell-based
[7] = HepG2 cell viability loss – cherry-picked samples, cytotoxicity control, dose response (AID 1053183); format: functional, cell-based
Vasopressin V1b receptor = Vasopressin V1b receptor (Homo sapiens, UniProt P47901); assay: Late-stage results from the probe development effort to identify antagonists of arginine vasopressin receptor 1a (AVPR1a): fluorescence-based cell-based dose response AVPR1b inhibition counterscreen assay.; format: functional
[8] = Late-stage results from the probe development effort to identify antagonists of arginine vasopressin receptor 1a (AVPR1a): fluorescence-based cell-based dose response AVPR1a inhibition assay.; format: functional
Vasopressin V2 receptor = Vasopressin V2 receptor (Homo sapiens, UniProt P30518); assay: Late-stage results from the probe development effort to identify antagonists of arginine vasopressin receptor 1a (AVPR1a): fluorescence-based cell-based dose response AVPR2 inhibition counterscreen assay.; format: functional
[9] = Late-stage results from the probe development effort to identify antagonists of arginine vasopressin receptor 1a (AVPR1a): fluorescence-based cell-based dose response OXTR inhibition counterscreen assay.; format: functional
[10] = molecular target: Potassium channel subfamily K member 3 (Rattus norvegicus, UniProt O54912); assay: SAR analysis for the identification of selective inhibitors of the two-pore domain potassium channel TASK1(KCNK3):Automated Electrophysiology.; format: functional
[11] = molecular target: Potassium channel subfamily K member 3 (Homo sapiens, UniProt O14649); assay: inhibition of human KCNK3 channel flux – CHO cells, FluxOR thallium flux, SAR follow-up (AID 652212); format: functional
[12] = molecular target: T1, Potassium channel subfamily K member 9 (Homo sapiens, UniProt Q9NPC2); assay: KCNK9 flux blockade, concentration-response – cell-based, FluxOR thallium flux, selectivity assay for TASK1 inhibitor project, SAR follow-up (AID 652211); format: functional;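 note: potency is for inhibitors of the channel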
[13] = molecular target: Potassium voltage-gated channel subfamily KQT member 2 (Rattus norvegicus, UniProt O88943); assay: block of rat KCNQ2 potassium channel – cell-based, FluxOR thallium flux, concentration-response, selectivity assay for TASK1 inhibitor project, SAR follow-up (AID 652192); format: functional
[14] = molecular target: T1, Potassium channel subfamily K member 9; assay: TASK3 channel blockers, electrophysiology – cell-based, automated electrophysiology, selectivity assay for TASK1 (KCNK3) inhibitor project, SAR follow-up (AID 652210); format: functional
[15] = molecular target: Metabotropic glutamate receptor 5 (Rattus norvegicus, UniProt P31424); assay: Identification of a glycine sulfonamide based non-MPEP site positive allosteric potentiator (PAM) of mGlu5 (calcium_assay).; format: functional
Metabotropic glutamate receptor 5, sequence (P31424 whole entry): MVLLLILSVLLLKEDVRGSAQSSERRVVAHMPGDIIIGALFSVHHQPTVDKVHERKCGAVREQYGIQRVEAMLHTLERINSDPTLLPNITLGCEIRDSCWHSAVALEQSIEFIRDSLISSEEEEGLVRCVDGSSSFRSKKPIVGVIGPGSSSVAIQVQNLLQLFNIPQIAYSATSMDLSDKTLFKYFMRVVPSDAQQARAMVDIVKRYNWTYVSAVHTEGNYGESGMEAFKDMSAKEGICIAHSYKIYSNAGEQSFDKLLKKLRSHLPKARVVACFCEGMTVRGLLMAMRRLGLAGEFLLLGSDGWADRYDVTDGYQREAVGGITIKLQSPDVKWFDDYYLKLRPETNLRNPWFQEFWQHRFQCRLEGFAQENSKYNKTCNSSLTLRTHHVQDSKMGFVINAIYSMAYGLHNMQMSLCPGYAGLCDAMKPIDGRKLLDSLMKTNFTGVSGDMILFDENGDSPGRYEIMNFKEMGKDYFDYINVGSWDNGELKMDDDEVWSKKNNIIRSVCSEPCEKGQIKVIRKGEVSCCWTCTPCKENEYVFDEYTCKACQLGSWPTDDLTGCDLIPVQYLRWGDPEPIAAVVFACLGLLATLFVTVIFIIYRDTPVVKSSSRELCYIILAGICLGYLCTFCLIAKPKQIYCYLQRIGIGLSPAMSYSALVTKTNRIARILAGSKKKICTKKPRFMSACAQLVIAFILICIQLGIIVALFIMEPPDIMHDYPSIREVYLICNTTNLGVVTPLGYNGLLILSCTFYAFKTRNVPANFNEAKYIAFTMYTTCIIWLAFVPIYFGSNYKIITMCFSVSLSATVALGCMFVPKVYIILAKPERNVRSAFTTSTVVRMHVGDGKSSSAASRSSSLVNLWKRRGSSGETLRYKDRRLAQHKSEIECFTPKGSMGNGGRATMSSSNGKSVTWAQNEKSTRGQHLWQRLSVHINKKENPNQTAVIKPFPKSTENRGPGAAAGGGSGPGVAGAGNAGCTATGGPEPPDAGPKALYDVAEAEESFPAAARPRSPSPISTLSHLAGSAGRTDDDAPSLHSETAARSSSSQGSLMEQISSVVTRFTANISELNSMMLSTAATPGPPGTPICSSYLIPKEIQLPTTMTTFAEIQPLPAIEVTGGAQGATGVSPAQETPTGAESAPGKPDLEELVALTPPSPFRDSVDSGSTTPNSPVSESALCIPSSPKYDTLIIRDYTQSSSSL

T1 sequence (Q9NPC2 whole entry): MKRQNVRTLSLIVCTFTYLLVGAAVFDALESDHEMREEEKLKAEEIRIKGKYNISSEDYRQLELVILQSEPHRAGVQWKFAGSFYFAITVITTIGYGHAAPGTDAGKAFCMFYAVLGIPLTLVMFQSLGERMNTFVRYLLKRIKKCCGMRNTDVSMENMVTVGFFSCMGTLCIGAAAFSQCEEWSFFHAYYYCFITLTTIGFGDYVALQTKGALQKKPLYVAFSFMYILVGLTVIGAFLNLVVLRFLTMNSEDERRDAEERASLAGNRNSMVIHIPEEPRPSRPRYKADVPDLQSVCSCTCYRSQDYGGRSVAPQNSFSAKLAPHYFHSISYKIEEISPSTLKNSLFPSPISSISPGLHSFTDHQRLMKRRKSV
Vasopressin V2 receptor, sequence (P30518 whole entry): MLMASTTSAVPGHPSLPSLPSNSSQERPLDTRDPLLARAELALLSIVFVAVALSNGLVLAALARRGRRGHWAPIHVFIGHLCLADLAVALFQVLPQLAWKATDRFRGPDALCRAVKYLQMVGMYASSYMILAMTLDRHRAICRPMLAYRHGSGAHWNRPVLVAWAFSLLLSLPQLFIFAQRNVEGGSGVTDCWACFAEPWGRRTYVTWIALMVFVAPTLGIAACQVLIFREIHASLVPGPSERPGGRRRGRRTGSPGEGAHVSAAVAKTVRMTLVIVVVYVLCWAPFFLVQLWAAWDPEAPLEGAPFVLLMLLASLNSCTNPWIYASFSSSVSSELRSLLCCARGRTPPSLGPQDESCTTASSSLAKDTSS
Vasopressin V1b receptor, sequence (P47901 whole entry): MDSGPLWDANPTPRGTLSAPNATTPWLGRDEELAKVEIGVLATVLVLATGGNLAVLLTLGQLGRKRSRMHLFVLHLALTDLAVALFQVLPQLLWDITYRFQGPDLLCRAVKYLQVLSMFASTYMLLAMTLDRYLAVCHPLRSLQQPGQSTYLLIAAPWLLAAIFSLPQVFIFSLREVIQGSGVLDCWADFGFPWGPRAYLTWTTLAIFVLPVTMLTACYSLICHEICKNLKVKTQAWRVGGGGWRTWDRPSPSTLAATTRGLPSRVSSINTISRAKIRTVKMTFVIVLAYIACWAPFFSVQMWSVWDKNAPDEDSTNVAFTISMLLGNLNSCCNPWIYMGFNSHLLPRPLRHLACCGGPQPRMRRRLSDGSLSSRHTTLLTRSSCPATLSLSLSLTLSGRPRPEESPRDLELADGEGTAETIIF
Potassium voltage-gated channel subfamily KQT member 2, sequence (O88943 whole entry): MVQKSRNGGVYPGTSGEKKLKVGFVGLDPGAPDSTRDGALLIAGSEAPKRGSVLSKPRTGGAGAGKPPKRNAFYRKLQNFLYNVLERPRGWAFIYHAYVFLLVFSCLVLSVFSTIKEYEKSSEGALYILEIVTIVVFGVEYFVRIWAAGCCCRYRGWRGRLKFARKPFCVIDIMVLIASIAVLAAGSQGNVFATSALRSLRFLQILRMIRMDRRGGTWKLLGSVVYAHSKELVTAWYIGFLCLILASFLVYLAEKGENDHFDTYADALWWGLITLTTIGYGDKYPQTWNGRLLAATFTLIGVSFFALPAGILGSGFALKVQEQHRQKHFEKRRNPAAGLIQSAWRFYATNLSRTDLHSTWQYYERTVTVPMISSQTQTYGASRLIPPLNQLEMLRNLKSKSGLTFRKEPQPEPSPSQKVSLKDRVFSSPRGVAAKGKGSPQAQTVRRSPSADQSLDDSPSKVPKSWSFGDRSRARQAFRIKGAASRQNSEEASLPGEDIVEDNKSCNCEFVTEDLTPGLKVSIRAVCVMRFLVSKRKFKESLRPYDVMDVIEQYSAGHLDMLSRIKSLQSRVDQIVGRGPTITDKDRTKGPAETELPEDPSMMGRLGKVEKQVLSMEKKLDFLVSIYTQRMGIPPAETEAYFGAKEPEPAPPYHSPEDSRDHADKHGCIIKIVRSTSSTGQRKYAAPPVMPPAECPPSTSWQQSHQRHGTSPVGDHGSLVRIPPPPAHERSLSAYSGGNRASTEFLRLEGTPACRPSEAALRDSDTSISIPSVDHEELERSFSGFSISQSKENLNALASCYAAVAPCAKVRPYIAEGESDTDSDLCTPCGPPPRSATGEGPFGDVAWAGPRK
Potassium channel subfamily K member 3 (Homo sapiens, UniProt O14649), sequence (O14649 whole entry): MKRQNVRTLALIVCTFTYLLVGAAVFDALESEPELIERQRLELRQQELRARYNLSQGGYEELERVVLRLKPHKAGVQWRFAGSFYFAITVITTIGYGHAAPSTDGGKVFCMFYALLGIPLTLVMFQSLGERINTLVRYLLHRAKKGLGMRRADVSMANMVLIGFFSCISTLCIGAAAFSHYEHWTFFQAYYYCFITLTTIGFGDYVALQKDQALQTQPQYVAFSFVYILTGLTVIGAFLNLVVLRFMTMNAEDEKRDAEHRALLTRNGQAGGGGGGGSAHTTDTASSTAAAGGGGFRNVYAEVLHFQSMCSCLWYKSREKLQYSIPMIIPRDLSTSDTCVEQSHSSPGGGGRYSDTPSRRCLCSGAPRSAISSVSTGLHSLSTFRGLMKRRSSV
Potassium channel subfamily K member 3 (Rattus norvegicus, UniProt O54912), sequence (O54912 whole entry, the tested form may be a part): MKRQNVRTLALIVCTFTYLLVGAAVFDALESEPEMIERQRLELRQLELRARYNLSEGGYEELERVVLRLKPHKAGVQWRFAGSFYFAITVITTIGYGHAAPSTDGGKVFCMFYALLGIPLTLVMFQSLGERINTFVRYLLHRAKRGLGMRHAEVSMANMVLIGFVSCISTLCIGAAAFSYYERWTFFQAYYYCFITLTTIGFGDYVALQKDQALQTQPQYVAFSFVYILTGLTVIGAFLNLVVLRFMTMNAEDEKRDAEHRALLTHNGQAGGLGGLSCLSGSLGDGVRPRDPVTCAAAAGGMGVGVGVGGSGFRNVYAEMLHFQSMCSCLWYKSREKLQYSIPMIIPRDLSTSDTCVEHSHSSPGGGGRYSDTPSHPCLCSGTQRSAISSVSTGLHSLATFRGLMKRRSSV

Structure (SMILES): CCN(CC)Cc1cc(Nc2ccnc3cc(Cl)ccc23)ccc1O
IC50 [1]: 0.19 µM (active)

Structure (SMILES): CO[C@@H](CN(C)S(=O)(=O)c1ccc(C)cc1)[C@@H](C)CN([C@H](C)CO)S(=O)(=O)c1cccc(Cl)c1
AC50 [2]: 18.6 µM (active)

Structure (SMILES): CS(=O)(=O)c1cccc(-c2nnc(SCc3ccccc3)o2)c1
AC50 [3]: > 52 µM (inactive)

Structure (SMILES): Cc1cccc(-c2ccc([C@@H]3[C@@H]4CN(Cc5cccc(F)c5)C[C@H]3N4)cc2)c1
AC50 [4]: 20.4 µM (active)
AC50 [5]: 27.1 µM (active)
AC50 [6]: 35.4 µM (active)
AC50 [7]: 17.7 µM (active)

Structure (SMILES): Cc1ccc(N2CCC(C(=O)N(CC3CC3)c3ccc(Cl)cc3)CC2)nc1
IC50 (Vasopressin V1b receptor): 20.8 µM (inactive)
IC50 [8]: 0.0201 µM (active)
IC50 (Vasopressin V2 receptor): 12.3 µM (inactive)
IC50 [9]: 12.4 µM (inactive)

IC50 [10]: 0.011 µM (active)
IC50 [11]: 0.01 µM (active)
IC50 [12]: 0.44 µM (active)
IC50 [13]: 1.88 µM (active)
IC50 [14]: 0.38 µM (active)
Structure (SMILES): CCOc1ccccc1C(=O)Nc1cccc(NC(=O)c2cccc(C)c2)c1

EC50 [15]: > 30 µM (inactive)
Structure (SMILES): O=C(Nc1cccc(Cl)c1)[C@H]1CCc2ccccc2N1S(=O)(=O)c1cccs1

Source: ChEMBL document CHEMBL1201862, “PubChem BioAssay data set” (2004)
